# Laboratory results published in article PMC5365645, “Preclinical Pharmacokinetics and Pharmacodynamic Target of SCY-078, a First-in-Class Orally Active Antifungal Glucan Synthesis Inhibitor, in Murine Models of Disseminated Candidiasis” (Antimicrobial Agents and Chemotherapy, 2017).
# Experiments:
# C. albicans CLY724 = assay: Single delayed-dose treatment model of disseminated candidiasis; assay type: in vivo, mice; settings: single dose 16 h after infection, tissue burden 96 h after treatment, regression analysis
# in vitro = in vitro ADME; settings: human, Caco-2
# Method: Caco-2 cell monolayers were used to assess the in vitro absorptive permeability of SCY-078 as a predictor of absorption across the gut following oral delivery. The mean apparent permeability for 5 μM SCY-078 in the apical-to-basolateral direction was 8.9 ± 0.78 ×10^−6 cm/s (89 ± 7.8 nm/s), indicating good oral absorption since in this assay permeability values of >10^−6 cm/s are considered predictive of good absorption after oral administration ([9]).
# Caco2 cells (ATCC CRL-2102) were cultured in Dulbecco modified Eagle medium with the dipeptide form of L-glutamine (GlutaMAX), 10% (vol/vol) fetal bovine serum, and 1% (vol/vol) penicillin-streptomycin at 10,000 U/ml in a 75-ml flask at 37°C in a humidified atmosphere of 5% CO2. […] On the day of the assay, the cell monolayers were rinsed with transport medium (Hanks balanced salt solution with 25 mM glucose and 25 mM HEPES [MediaTech Corning, Tewksbury, MA]), and the absorptive permeation of SCY-078 was evaluated by measuring the flux from the apical to the basolateral compartments. […] The apparent permeability coefficient (Papp; cm/s) was calculated as follows: Papp = 1/A·C0 (dQ/dt), where dQ/dt is the rate of drug appearance in the basolateral compartment (μmol/s), C0 is the initial drug concentration in the donor compartment (μM), and A is the surface area of the monolayer (cm^2). […]
# [1] = In vitro metabolic stability in hepatic microsomes, rodent summary; assay type: in vitro ADME, mouse and rat
# Method: The metabolic stability of SCY-078 was assessed after incubation with mouse, rat, dog, and human liver microsomes (Table 2) ([10]). […] The half-lives in rodent, dog, and human liver microsomes were ≥125, ≥29, and ≥42 min, respectively.
# (§1) The metabolic stability of SCY-078 was evaluated with male and female mouse, male rat, male and female dog, and mixed-gender human liver microsomes (XenoTech, Lenexa, KS). SCY-078 (1 μM) was incubated with pooled liver microsomes (0.5 mg protein/ml) for 0, 5, 10, 20, and 30 min at 37°C in the presence of NADPH. Aliquots were taken at each sampling time point and extracted with 5 volumes of ice-cold acetonitrile containing the internal standard (d9-SCY-078, 125 ng/ml). Supernatants from the incubation mixtures were analyzed for the parent compound by LC-MS/MS according to the conditions described below. The metabolic competency of microsomal preparations was established using the control compounds 7-ethoxycoumarin, propranolol, and verapamil. The in vitro intrinsic clearance (CLint), the CLint scaled to the in vivo intrinsic clearance (CL′int), and the half-life were determined for SCY-078 incubated with microsomes from each species.
# [2] = In vitro metabolic stability in hepatic microsomes, dog or human summary; assay type: in vitro ADME; settings: both sexes, liver microsomes
# Method: Scaling intrinsic clearance to hepatic clearance based on liver blood flow indicates low clearance in rodents and moderate clearance in dogs and humans ([15]). These solubility, permeability, and metabolic stability data are consistent with SCY-078 being well absorbed from the intestine and able to achieve clinically relevant exposures following oral delivery.
# as §1
# [3] = system: C. parapsilosis isolate CP 20519.069; set-up: method as in PMID 25512406; settings: stasis ref 6; cited from earlier work
# [4] = system: C. glabrata isolate CG 5592; set-up: method as in PMID 25512406; settings: cited from earlier work
# [5] = set-up: method as in ref 5 = [5]; 5. Trucksis M , Garrett G , Bautmans A , Heirman I , Laethem M , Comisar WA , Maganti L , Bi S , Iwamoto M , O'Mara E , Wagner JA , Depre M , de Hoon J 2011 A phase I multiple-rising dose study evalua; settings: single- and multiple-dose phase 1 and 2 clinical studies ref 5; cited from earlier work
# in vivo = settings: female, CD-1, mouse; for AUC(0-inf) / AUC(0-t) / half-life: kidney; for AUC(0-inf) / AUC(0-t) / half-life / Kp: po; for Kp at 12 h / Kp: kidney/plasma; for Kp at 12 h: oral
# Method: (§2) Female CD-1 mice (n = 5/sex/time point/group) weighing approximately 25 g were administered SCY-078 by oral gavage either once daily or as multiple twice-per-day (Q12h) treatments, with individual doses ranging between 3 and 100 mg/kg (6 to 150 mg/kg/day). Mice also received a single 1-mg/ml i.v. dose of SCY-078. Plasma specimens were collected prior to dosing and at 0.25, 0.5, 1, 2, 4, 6, 9, 12, 18, 24, 36, 48, and 60 h after the single i.v. dose and at the same time points from 1 h postdose onward following oral dose 13 on day 7 of treatment. On the first day of oral treatment, plasma specimens were collected immediately before each of the two doses and 1, 2, 4, 6, 9, and 12 h postdosing. […] Kidney tissues were collected at 2, 4, 12, 24, 36, 48, and 60 h after oral dose 13 on treatment day 7, blotted dry, and stored at approximately −80°C until analysis.
# (§3) On the day of analysis, either treatment-naive (drug-free) kidney tissue or freshly thawed tissue samples from PK studies were weighed and homogenized in 3 volumes of phosphate-buffered saline. The density of kidney tissue used for the determination of volume was assumed to be 1.0 g/ml.
# (§4) Whole-kidney tissue samples were homogenized in parallel by means of a Precellys 24 bead mill homogenizer (Bertin Technologies, Montigny le Bretonneux, France) using 2-ml Precellys tubes containing 1.4-mm-diameter ceramic beads (CK14) and a single 15-s cycle of 5,500 rpm. Parallel bead homogenization increased throughput and avoided potential cross-contamination of samples since each sample was wholly contained and homogenized within its own sealed vial with no direct contact between the homogenizing instrument or other samples.
# (§5) Mouse plasma (50 μl) or kidney tissue homogenate (50 μl) was treated with 5 volumes of acetonitrile containing 50 ng of deuterium (d9)-labeled SCY-078 internal standard/ml to precipitate proteins. Treated samples were mixed on a 96-well plate shaker for ∼30 min and then centrifuged at approximately 4,000 × g and 15°C for 15 min. Supernatants were transferred to fresh 96-well plates for analysis by LC-MS/MS.
# [6] = Biological distribution to kidney tissue after oral delivery; settings: for Time to which concentrations would remain measurable in kidney: after dose 13, predicted from elimination rate constant
# Method: as §2, §3, §4, §5
# [7] = kidney, 12 mg/kg oral, dose 13 day 7
structure (smiles),measurement,setting,value
"CC(C)[C@@H](C)[C@@]1(C)CC[C@]2(C)[C@H]3CC[C@@H]4[C@@]5(COC[C@@]4(C)[C@@H](OC[C@](C)(N)C(C)(C)C)[C@H](n4ncnc4-c4ccncc4)C5)C3=CC[C@@]2(C)[C@@H]1C(=O)O [SCY-078, (1S,4aR,6aS,7R,8R,10aR,10bR,12aR,14R,15R)-15-[[(2R)-2-amino-2,3,3-trimethylbutyl]oxy]-8-[(1R)-1,2-dimethylpropyl]-14-[5-(4-pyridinyl)-1H-1,2,4-triazol-1-yl]-1,6,6a,7,8,9,10,10a,10b,11,12,12a-dodecahydro-1,6a,8,10a-tetramethyl-4H-1,4a-propano-2H-phenanthro[1,2-c]pyran-7-carboxylic acid]",Dose achieving stasis endpoint,C. albicans CLY724,9.93 mg/kg
same,"Papp at 2 h, 5 µM",in vitro,~8.9 ×10⁻⁶ cm/s
same,"Papp at 2 h, 5 μM",in vitro,8.9 ± 0.78 ×10⁻⁶ cm/s
same,half-life at 1 μM,"[1]; both (mouse), male (rat), pooled liver microsomes, rodent liver microsomes",≥ 2.08 h
same,CLint scaled at 1 μM,"[1]; both (mouse), male (rat), pooled liver microsomes, rodent liver microsomes, read-out: CL′int (CLint scaled to in vivo intrinsic clearance)",< 2.4 mL/h/kg
same,microsomal CLint at 1 μM,"[1]; both (mouse), male (rat), pooled liver microsomes, rodents (mouse and rat) liver microsomes",≤ 11 µL/min/mg
same,"remaining at 0.5 h, 1 µM","[1]; both sexes, mouse, rat, liver microsomes, rodent microsomes, read-out: % remaining after 30 min",~85%
same,"remaining at 0.5 h, 1 µM","[2]; dog or human microsomes, read-out: % remaining after 30 min",~50%
same,half-life at 1 μM,"[2]; dog or human microsomes, read-out: Half-life (t0.5)",≥ 0.483 h
same,microsomal CLint at 1 μM,"[2]; larger species (dog, human), read-out: Intrinsic clearance",< 48 µL/min/mg
same,Total drug AUC0–24 target,[3],~18.8 µM·h
same,MIC,[4],0.25 µg/mL
same,Tolerability,[5],well tolerated
same,AUC(0-inf),in vivo; 6.25 mg/kg,198 µg·h/mL
same,AUC(0-t),in vivo; 6.25 mg/kg,118 µg·h/mL
same,half-life,in vivo; 6.25 mg/kg,9.2 h
same,AUC(0-inf),in vivo; 12 mg/kg,700 µg·h/mL
same,AUC(0-t),in vivo; 12 mg/kg,346 µg·h/mL
same,half-life,in vivo; 12 mg/kg,8.9 h
same,Kp at 12 h,in vivo; 6.25 mg/kg,19
same,Kp at 12 h,in vivo; 12 mg/kg,25.7
same,Kp,in vivo; 6.25 mg/kg,21.5
same,Kp,in vivo; 12 mg/kg,23.1
same,Time to which concentrations would remain measurable in kidney,[6]; 6.25 mg/kg,approximately 100 h
same,Time to which concentrations would remain measurable in kidney,[6]; 12 mg/kg,~115 h
same,AUC0–24,"[6]; kidney, 6.25 mg/kg oral, dose 13 day 7",195 µg·h/mL
same,AUC0–24,[6]; [7],553 µg·h/mL
same,half-life,[6]; [7],8.6 h
